Measured values taken from patent US6486343B1, “Substituted phenyl keto enols as pesticides and herbicides” (Bayer Aktiengesellschaft, priority 1996, dated 2002).

Columns and labels:
Type in all cases: in vivo
[1] = tested on: spider mite (Tetranychus urticae); test: Tetranychus test (OP resistant/dip treatment); conditions: active compound concentration 0.1%; after 5 days; bean plants dipped
Description: Tetranychus Test (OP Resistant/dip Treatment)
Solvent: 3 parts by weight of dimethylformamide
Emulsifier: 1 part by weight of alkylaryl polyglycol ether
To produce a suitable preparation of active compound, 1 part by weight of active compound is mixed with the stated amount of solvent and the stated amount of emulsifier, and the concentrate is diluted with water to the desired concentration.
Bean plants (Phaseolus vulgaris) heavily infected by all stages of the spider mite (Tetranychus urticae) are dipped into a preparation of the active compound of the desired concentration.
After the specified period of time, the destruction in % is determined. 100% means that all spider mites have been killed; 0% means that none of the spider mites have been killed.

[2] = tested on: larvae of the green rice leafhopper (Nephotettix cincticeps); test: Nephotettix test; conditions: active compound concentration 0.1%; after 6 days; rice seedlings dipped
Description: Nephotettix Test Solvent: 7 parts by weight of dimethylformamide Emulsifier: 1 part by weight of alkylaryl polyglycol ether To produce a suitable preparation of active compound, 1 part by weight of active compound is mixed with the stated amount of solvent and the stated amount of emulsifier, and the concentrate is diluted with water to the desired concentration. Rice seedlings (Oryzae sativa) are treated by being dipped into the preparation of the active compound of the desired concentration and are infested with larvae of the green rice leafhopper (Nephotettix cincticeps) while the seedlings are still moist. After the specified period of time, the destruction in % is determined. 100% means that all the leafhoppers have been killed; 0% means that none of the leafhoppers have been killed.

[3] = tested on: caterpillars of the diamond-back moth (Plutella maculipennis); test: Plutella test; conditions: active compound concentration 0.1%; after 7 days; cabbage leaves dipped
Description: Plutella Test Solvent: 7 parts by weight of dimethylformamide Emulsifier: 1 part by weight of alkylaryl polyglycol ether To produce a suitable preparation of active compound, 1 part by weight of active compound is mixed with the stated amount of solvent and the stated amount of emulsifier, and the concentrate is diluted with water to the desired concentration. Cabbage leaves (Brassica oleracea) are treated by being dipped into the preparation of active compound of the desired concentration and are infested with caterpillars of the diamond-back moth (Plutella maculipennis) while the leaves are still moist. After the specified period of time, the destruction in % is determined. 100% means that all the caterpillars have been killed; 0% means that none of the caterpillars have been killed.

[4] = tested on: mustard beetle larvae (Phaedon cochleariae); test: Phaedon larvae test; conditions: active compound concentration 1000 ppm; after 7 days; cabbage leaves dipped
Description: Phaedon Larvae Test Solvent: 7 parts by weight of dimethylformamide Emulsifier: 1 part by weight of alkylaryl polyglycol ether To produce a suitable preparation of active compound, 1 part by weight of active compound is mixed with the stated amount of solvent and the stated amount of emulsifier, and the concentrate is diluted with water to the desired concentration. Cabbage leaves (Brassica oleracea) are treated by being dipped into the preparation of the active compound of the desired concentration and are infested with mustard beetle larvae (Phaedon cochleariae) while the leaves are still moist. After the specified period of time, the destruction in % is determined. 100% means that all the beetle larvae have been killed; 0% means that none of the beetle larvae have been killed.

Compound | destruction in % [1] | destruction in % [2] | destruction in % [3] | destruction in % [4]
Cc1ccc(Cl)c(C)c1C1=C(O)C2(CCC(C)CC2)NC1=O (centres unmarked) [I-1-a-1] | 100% | 100% | – | –
Cc1ccc(Cl)c(C)c1C1=C(OC(=O)CC(C)C)C2(CCC(C)CC2)NC1=O (centres unmarked) [I-1-b-1] | – | 100% | 100% | 100%
CCOC(=O)OC1=C(c2c(C)ccc(Cl)c2C)C(=O)NC12CCC(C)CC2 (centres unmarked) [I-1-c-1] | – | – | 100% | 100%
Cc1ccc(Cl)c(C)c1C1=C(OC(=O)C(C)(C)C)C2(CCCCC2)OC1=O [I-2-b-1] | 100% | – | – | –
